What all share (assay): growth of human tumour cells (NCI), 48 h
Experiment [1] relates to A498 renal.
In experiment [2] the test system is 786-0 renal.
Experiment [3] has as its system HS 578T breast.
For experiment [4], the system named is K-562 leukemia.
Experiment [5] relates to OVCAR-5 ovarian.
Experiment [6] concerns HCT-116 colon.
Experiment [7] deals with SNB-75 CNS.
In experiment [8] the test system is SK-MEL-2 melanoma.
Experiment [9] relates to EKVX NSCLC.
Experiment [10] concerns KM12 colon.

The structures appear in SMILES notation. Several values for one entry are separate records, joined by “and”; a condition that tells them apart may be missing. Identical values can stand only once.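 Dose response: 5 concentrations. Exposure: 48 h. Format: 96-well plates. Endpoint: linear interpolation; highest concentration if not reached. Here, GI50 denotes the concentration required for 50% inhibition of growth. Definition used: TGI = concentration required for complete inhibition of growth.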

Turning to `CCCC#CCOC(=O)c1cc([N+](=O)[O-])cc([N+](=O)[O-])c1`, the TGI in experiment [1], in experiment [2], in experiment [3], in experiment [4], in [5] and in [6] was above 100 µM in each case. The TGI in experiment [7], in experiment [8], in experiment [9] and in experiment [10] was above 100 µM in each case.

In the case of `CN(C)CCNc1nc2ccccc2c2occc12`, the GI50 was 48.5 µM in [1]; 62 µM in experiment [2]; 99.4 µM in [3]; 25.9 µM in experiment [4]; 37.2 µM in experiment [5]; 34.1 µM in experiment [6]. Further, the GI50 in experiment [7] is 11.8 µM; in experiment [8], 33.8 µM; in experiment [9], 59.5 µM; in experiment [10] it was 51.7 µM. Besides, the TGI in experiment [1] was 81.6 µM; in experiment [2] it was above 100 µM; in experiment [3], above 100 µM; in experiment [4] it was 98.9 µM; in experiment [5] it was 88.4 µM; in experiment [6], above 100 µM. In addition, the TGI in experiment [7], in experiment [8], in [9] and in experiment [10] was above 100 µM each time.

On to `O=C(c1ccccc1O)c1[nH]c(Cl)c(Cl)c1-n1c(C(=O)c2ccccc2O)cc(Cl)c1Cl`, for which the GI50 was 0.231 µM and 0.332 µM in experiment [1]; 2.11 µM and 1.73 µM in experiment [2]; 0.849 µM and 0.623 µM in [3]; 0.409 µM in experiment [4]; 2.54 µM and 2.73 µM in [5]; 0.336 µM and 0.344 µM in experiment [6]. For the same molecule, the GI50 was 1.8 µM and 1.58 µM in experiment [7]; 0.335 µM and 1.13 µM in experiment [8]; 0.549 µM in [9]; 1.92 µM and 0.75 µM in [10]. Besides, the TGI in experiment [1] is 2.04 µM and 2.75 µM; in experiment [2], 11.2 µM and 7.99 µM; in experiment [3] it was 10.9 µM and 9.66 µM; in [4], 16.8 µM; in [5], 9.87 µM and 14.6 µM; in experiment [6], 4.76 µM and 10.4 µM. Besides, the TGI in [7] was 10.3 µM and 8.76 µM; in experiment [8], 1.41 µM and 5.68 µM; in experiment [9] it was 10 µM; in experiment [10] it was 12.1 µM and 11.9 µM.

`CC12CCC(O)CC1=CCC1C2CCC2(C)C(c3cccnc3)=CCC12` (stereo not given): the GI50 in experiment [1] was above 100 µM; in experiment [2] it was 50.4 µM; in experiment [3], above 100 µM; in experiment [4], 76.8 µM; in [5] it was above 100 µM; in experiment [6] it was above 100 µM. For the same molecule, the GI50 in experiment [7] is 48.5 µM; in experiment [8] it was above 100 µM; in experiment [9] it was above 100 µM; in experiment [10] it was above 100 µM. Also, the TGI in [1], in experiment [2], in [3], in [4], in [5] and in experiment [6] was above 100 µM each time. In addition, the TGI in experiment [7], in experiment [8], in experiment [9] and in experiment [10] was above 100 µM throughout.

Take `CN1CCN(c2ccc(C(=O)Nc3cccc(C#Cc4cccc5[nH]nc(N)c45)c3)cc2C(F)(F)F)CC1`: the GI50 in [1] is 2.22 µM; in experiment [2] it was 2.05 µM; in experiment [3] it was 0.847 µM; in experiment [4] it was 0.0235 µM; in [5], 0.959 µM; in experiment [6], 0.525 µM. The GI50 in experiment [7] was 0.624 µM; in experiment [8], 1.7 µM; in experiment [9], 1.6 µM; in experiment [10], 0.808 µM. For the same molecule, the TGI in [1] came out at 6.76 µM; in experiment [2], 5.04 µM; in experiment [3] it was 3.4 µM; in experiment [4], 0.717 µM; in [5] it was 3.27 µM; in experiment [6] it was 1.04 µM. The TGI was found to be 1.62 µM in experiment [7], 5.49 µM in experiment [8], 5.63 µM in [9] and 1.95 µM in experiment [10].

Regarding `COc1ccc2[nH]c(O)c(/C=c3/ccc4c(c3)N=C(c3ccc(F)cc3)N=4)c2c1`, the GI50 in experiment [1] is 1.46 µM; in experiment [2] it was 1.69 µM; in experiment [3] it was 2.73 µM; in experiment [4], 9.14 µM; in experiment [5], 7.1 µM; in experiment [6], 1.63 µM. For the same molecule, the GI50 in experiment [7] is 1.55 µM; in experiment [8] it was 5.72 µM; in experiment [9], 14 µM; in experiment [10], 4.54 µM. Moreover, the TGI in experiment [1] is 4.28 µM; in experiment [2], 3.26 µM; in experiment [3], 9.4 µM; in experiment [4], above 100 µM; in [5], 97.9 µM; in experiment [6], 3.37 µM. The TGI was 3.6 µM in experiment [7], 44.8 µM in experiment [8], above 100 µM in experiment [9] and 77.9 µM in [10].

As for `Nc1cc2nc3ccccc3oc-2cc1=O`, the GI50 in experiment [1] was 5.44 µM; in [2], 20.7 µM; in experiment [3], 1.48 µM; in experiment [4] it was 2.05 µM; in experiment [5], 2.41 µM; in experiment [6] it was 6.1 µM. In addition, the GI50 in experiment [7] was 1.82 µM; in [8], 6.62 µM; in [9], 7.38 µM; in experiment [10] it was 3.71 µM. For the same molecule, the TGI in experiment [1] was 11.1 µM; in experiment [2], above 83.4 µM; in experiment [3] it was 5.52 µM; in experiment [4] it was above 26.9 µM; in [5], 5.79 µM; in experiment [6], above 68 µM. For the same molecule, the TGI was 4.63 µM in [7], 25.7 µM in experiment [8], above 64.2 µM in experiment [9] and 43.5 µM in [10].

On to `NC(CO)C(=O)NCC(=O)O` (stereo not given), for which the TGI in experiment [1], in experiment [2], in [3], in experiment [4], in experiment [5] and in [6] was above 100 µM each time. In addition, the TGI in experiment [7], in experiment [8], in experiment [9] and in [10] was above 100 µM in each case.
